Results on 3 compounds are retold here after patent US20240238243A1, “METHODS AND COMPOSITIONS FOR TREATMENT OF HEART FAILURE WITH PRESERVED EJECTION FRACTION” (Northwestern University, priority 2023, published 2024).

In one experiment the test system is protein O-GlcNAcylation. In words: Immunoblot of protein O-GlcNAcylation after intraperitoneal 5S-GlcNHex. In kind it is in vivo, mouse. As for the experimental part: Protein extracts from frozen mouse hearts, isolated cardiomyocytes, fibroblasts, endothelial cells, and HUVECs were prepared by lysis in ice-cold RIPA buffer (150 mM NaCl, 25 mM Tris-HCl pH 7.4, 1% NP-40, 1% sodium deoxycholate, 0.1% SDS) containing protease inhibitors. For analyses of O-GlcNAcylation, 200 μg/ml of PUGNAC (Sigma-Aldrich) was added to the RIPA buffer. Proteins were separated by sodium dodecyl sulfate-polyacrylamide gel electrophoresis (SDS-PAGE) on 8 or 10% polyacrylamide gels and transferred to nitrocellulose membranes. Membranes were incubated with the following primary antibodies overnight, before the addition of HRP-conjugated secondary antibodies: HK1 (2024, Cell Signaling Technology); HK2 (2867, Cell Signaling Technology); GAPDH (60004-1-Ig, Proteintech); FLAG (F1804, Sigma-Aldrich); alpha-tubulin (66031-1-Ig, Proteintech); ATP synthase C (ab181243, Abcam); Phospho-AMPKα (Thr172) (4188, Cell Signaling Technology); AMPKα (2603, Cell Signaling Technology); GFPT1 (14132-1-Ig, Proteintech); RPN1 (12894-1-AP, Proteintech); RPN2 (10576-1-AP, Proteintech); DDOST (14916-1-AP, Proteintech); GFP (66002-1-Ig, Proteintech), O-Linked N-Acetylglucosamine (ab2739, Abcam); OGT (11576-2-AP, Proteintech); OGA (66033-1-Ig, Proteintech). The presence of target protein was visualized using Super Surgical Western Pico ECL substrate (Pierce). Quantification of the western blotting images was done using ImageJ (NIH).
A general note: In western blotting, separated proteins are transferred to a membrane and probed.

Experiment [1] has as its system C57BL/6J mice treated with HFD_L-NAME. In words: HFD_L-NAME HFpEF mouse model: echocardiography, heart weight, treadmill exercise test. In kind it is in vivo. The text has this: HKΔE1HK1/Δ^E1HK1 (ΔE1HK1) and HK1^WT/WT wild-type (WT) control mice were generated by the Northwestern Mutagenesis and Transgenic core (De Jesus et al., 2022). Briefly, guide RNAs (gRNAs) were designed to induce a double-strand break (DSB) near the 5′ ATG start codon of HK1 in exon 1, and a DNA template containing an M-DYKDDDDK (Methionine-FLAG-tag) sequence with flanking homology arms to the HK1 gene near exon 1 was introduced into fertilized zygotes and implanted into surrogate mice. […] Mouse's genetic background is C57BL/6J. Tie2-Tet-OGA mice are generous gifts from Dr. Dillmann and Dr. Makino (Makino etal., 2015). Mice were maintained in the barrier facility at Northwestern University under specific pathogen-free conditions under the Federal and University guidelines and protocols approved by Institutional Animal Care and Use Committee (IACUC) with 12 hr light and 12 hr dark cycles and received normal chow (NC). Male and female ΔE1HK1 mice were used at 8-40 weeks of age. 8-week-old ΔE1HK1 male mice were fed HFD consisting of 60% fat, 20% protein, and 20% carbohydrates for 20 weeks. To produce the HFpEF mice model, C57BL/6J and Tie2-Tet-OGA mice were fed HFD and 0.5 g/L ofN.-Nitro-L-arginine methyl ester (LNAME, Sigma-Aldrich) for 8-15 weeks. For the induction of OGA overexpression, 0.5 g/L of DOX in drinking water was administered to Tie2-Tet-OGA mice until they were sacrificed. All animal studies were approved by the IACUC at Northwestern University and were performed in accordance with guidelines from the National Institutes of Health.
Mice were anesthetized using isoflurane via a nasal cone, the chest was shaved, and the temperature of the mice was maintained at 37° C. The heart rate was continually monitored. Transthoracic echocardiography was performed using a VisualSonics Vevo 2100 system equipped with an MS400 transducer (FUJIFILM). LVEF and other indices of systolic function and thickness of LV walls were obtained from short-axis M-mode scans at the midventricular level, as indicated by the presence of papillary muscles. Apical four-chamber views were obtained for diastolic function measurements using pulsed-wave and tissue doppler imaging at the level of the mitral valve. During echocardiogram acquisition, isoflurane was maintained in 1.0-1.5% to maintain a heart rate in the range of 400-450 beats per min. All parameters were measured at least three times, and means are presented.
The exercise exhaustion test was performed as previously described (Schiattarella et al., 2019). After three days of acclimatization to treadmill exercise, an exhaustion test was performed in the experimental groups of mice. Mice ran uphill (20°) on the treadmill (Columbus Instruments) starting at a warm-up speed of 5 m/min for 3 min after which speed was increased to 14 m/min for 2 min. Every subsequent 2 min, the speed was increased by 2 m/min until the mouse was exhausted. Exhaustion was defined as the inability of the mouse to return to running within 10 s of direct contact with an electric-stimulus grid. Running time was measured and running distance calculated.

Another experiment has as its target T1, OGT (Mus musculus, UniProt Q8CGY8).
T1 sequence (Q8CGY8 2-1046 limits assumed): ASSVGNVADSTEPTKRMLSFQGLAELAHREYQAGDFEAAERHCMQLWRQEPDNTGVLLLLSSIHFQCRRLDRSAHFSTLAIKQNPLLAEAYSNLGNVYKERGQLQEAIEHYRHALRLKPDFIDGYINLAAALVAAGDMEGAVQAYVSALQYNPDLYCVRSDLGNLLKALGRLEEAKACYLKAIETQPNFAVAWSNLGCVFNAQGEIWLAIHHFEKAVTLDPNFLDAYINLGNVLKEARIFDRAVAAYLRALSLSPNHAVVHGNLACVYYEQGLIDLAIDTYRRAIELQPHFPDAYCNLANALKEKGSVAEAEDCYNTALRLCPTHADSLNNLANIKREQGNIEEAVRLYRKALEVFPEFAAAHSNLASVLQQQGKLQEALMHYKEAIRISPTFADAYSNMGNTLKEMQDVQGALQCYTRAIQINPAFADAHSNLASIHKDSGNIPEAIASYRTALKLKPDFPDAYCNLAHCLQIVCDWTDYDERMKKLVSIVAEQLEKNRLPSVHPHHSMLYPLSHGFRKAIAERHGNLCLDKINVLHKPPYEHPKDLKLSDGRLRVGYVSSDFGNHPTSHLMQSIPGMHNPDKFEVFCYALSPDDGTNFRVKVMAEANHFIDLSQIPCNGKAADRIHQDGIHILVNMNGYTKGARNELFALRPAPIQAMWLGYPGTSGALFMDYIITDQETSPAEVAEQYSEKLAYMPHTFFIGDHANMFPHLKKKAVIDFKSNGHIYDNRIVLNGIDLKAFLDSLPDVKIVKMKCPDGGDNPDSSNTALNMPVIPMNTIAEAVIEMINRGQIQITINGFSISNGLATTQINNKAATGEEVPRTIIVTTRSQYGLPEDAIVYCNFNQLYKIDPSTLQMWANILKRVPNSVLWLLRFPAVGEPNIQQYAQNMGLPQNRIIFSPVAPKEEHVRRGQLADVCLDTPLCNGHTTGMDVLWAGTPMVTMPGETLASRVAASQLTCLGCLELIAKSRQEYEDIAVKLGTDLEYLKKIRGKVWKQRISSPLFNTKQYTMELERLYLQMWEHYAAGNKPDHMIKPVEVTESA
To be noted: Liu et al., 2018; cited from earlier work.

The next experiment deals with ECs from ΔE1HK1 mice. Briefly: Tube formation assay in isolated ECs from ΔE1HK1 mice treated with ST045849. In kind it is cell-based, mouse. To be noted: 20 μM, FIGS. 7H and 7I. As for the experimental part: Endothelial cells (ECs) were isolated from mouse hearts as previously described (Luo et al., 2016; van Beijnum et al., 2008). Briefly, dissected mouse heart was minced and incubated with PBS containing 2% fetal bovine serum (FBS), 1 mg/ml collagenase II (Worthington), and 0.6 U/ml dispase II (Sigma-Aldrich) for 30 mins at 37° C. 7.5 μg/ml of DNase I (Sigma-Aldrich) was added to the digested hearts and additional incubation for 30 minutes was performed. The digested material was filtered through 40 μm cell strainer, then incubated with biotinylated anti-CD45 antibody (Invitrogen) and depleted of CD45 positive cells using EasySep Mouse Streptavidin (STEMCELL technologies) as described in the manufacture's protocol. […]
The formation of tube networks was assessed as described before (Das et al., 2018). […] Following an 18 hour-incubation, tube networks from each biological replicate were analyzed in at least three random fields by light microscopy. The number of branch points (junctions), segments and meshes, and total length of tubule networks (total length of branching) were quantified by Fiji software (Angiogenesis Analyzer).

For experiment [2], the system named is protein N-glycosylation in HUVEC. Briefly: Lectin blot with ConA-HRP of HUVEC treated with tunicamycin (dose-curve). In kind it is cell-based, human. To be noted: preliminary dose-curve experiments, FIG. 6M. The procedure:
HUVECs were purchased from Lonza and grown in EGM2 media (Lonza). HEK293T cells were purchased from ATCC and cultured in DMEM (Corning) with 10% FBS (Bio-Techne Sales Corp.). All cells were maintained in a 37° C. incubator with 5% CO2 and were 70% to 90% confluent when collected for analyses.
Nitrocellulose membranes with blotted proteins were blocked with PBS containing 2% Tween 20 for 2 minutes at room temperature. They were rinsed with PBS twice, then incubated with 1 μg/ml of ConA-HRP (Sigma-Aldrich) in PBS containing 0.05% Tween 20, 1 mM CaCl2), 1 mM MnCl2, and 1 mM MgCl2 for 16 hours at room temperature avoiding exposure to the light. The presence of proteins conjugated with the lectin was visualized using Super Surgical Western Pico ECL substrate (Pierce). Quantification of the images was done using ImageJ (NIH).

Experiment [3] relates to genes related to UPR in HUVEC. In words: mRNA levels of genes related to UPR (Xbp1s, Hspa5) in HUVEC treated with tunicamycin. Type of experiment: cell-based, human. Particulars: FIGS. 6N and 6O. As for the experimental part: RNA was isolated from cells or heart samples using RNA-STAT60 (Tel-Test), and reverse transcribed with Taqman Reverse Transcription Reagents (Invitrogen) according to manufacturers' instructions. Quantification of relative gene expression was done using Fast SYBR Green Master Mix (Applied Biosystems) and run on 7500 Fast Real-Time PCR system (Applied Biosystems). The relative gene expression was determined using differences in Ct values between the gene of interest and house-keeping control genes, which are Actb, Hprt1, and/or 18S, depending on the experiment.

The test system of the next experiment is HUVECs. Briefly: Tube formation assay in HUVECs treated with tunicamycin. Type of experiment: cell-based, human. Particulars: HUVECs, 0, 30, 50, and 100 nM, FIG. 6P. As for the experimental part: The formation of tube networks was assessed as described before (Das et al., 2018). HUVECs and isolated ECs were seeded at 20,000 and 45,000cells per well in a 96-well plate coated with […] Matrigel (Fisher Scientific) or Cultrex (R & D Systems) reduced growth factor basement membrane matrix. The cells were treated with EGM-2 medium containing tunicamycin (Sigma-Aldrich) or ST045849 (Sigma-Aldrich) wherever mentioned. Following an 18 hour-incubation, tube networks from each biological replicate were analyzed in at least three random fields by light microscopy. The number of branch points (junctions), segments and meshes, and total length of tubule networks (total length of branching) were quantified by Fiji software (Angiogenesis Analyzer).

Setting [4] is: isolated ECs, intraperitoneal, dose dependency study, FIG. 9A.
Where [5] appears, read: single intraperitoneal injection of 50 mg/kg, FIG. 9M.
Setting [6] is: 30 mg/kg every 48 hours for 10 weeks following 5 weeks of HFD_L-NAME.
Where [7] appears, read: 50 mg/kg for 3 weeks following 5 weeks of HFD_L-NAME.
Where [8] appears, read: 20 and 30 mg/kg every 48 hours for 10 weeks following 5 weeks of HFD_L-NAME.

As for `CCCCCC(=O)N[C@H]1C(O)S[C@H](CO)[C@@H](O)[C@@H]1O` (stereo partly drawn) [5S-GlcNHex, 2-deoxy-2-N-hexanamide-5-thio-D-glucopyranoside], in the experiment on protein O-GlcNAcylation (setting [4]), the “dose at which reduction of protein O-GlcNAcylation reached a plateau” value worked out at 30 mg/kg and the “dose that initiated the reduction of protein O-GlcNAcylation” value came out at 20 mg/kg. Besides, in the experiment on protein O-GlcNAcylation (single intraperitoneal injection of 50 mg/kg, C57BL6/J mice), the “protein O-GlcNAcylation in various organs” value is given as “effectively curtailed”. Besides, in the experiment with protein O-GlcNAcylation (setting [5]), the “time after which protein O-GlcNAcylation returns to baseline” value is 72 h and the “time over which protein O-GlcNAcylation is reduced” value stood at 48 h. Besides, the “protein O-GlcNAcylation in ECs in vivo” value with protein O-GlcNAcylation (summary statement) was “successfully reduces”. Moreover, in experiment [1] (20 mg/kg every 48 hours for 10 weeks following 5 weeks of HFD_L-NAME), the “increased E/A ratio” value was “reversed”. Also, in experiment [1] (setting [6]), the “exercise capacity (treadmill test)” value is “significant improvement” and the “increased E/A ratio” value was “reversed”. In experiment [1] (setting [7]), the EF result was “no discernable effects”, the “cardiac hypertrophy as indicated by PWTd” value is recorded as “ameliorated”, the “cardiac hypertrophy as indicated by heart weights” value is recorded as “ameliorated” and the “decreased e'” value was “substantially restored”. Besides, in experiment [1] (setting [7]), the “increased E/A” value is “substantially restored”, the “increased E/e'” value is recorded as “substantially restored” and the “increased LA area” value is “substantially restored”. Further, the HFpEF phenotype entry in experiment [1] (50 mg/kg, FIGS. 9M-9X) is on record as “reverses the HFpEF phenotype”. Besides, in experiment [1] (setting [8]), the EF entry is “no significant changes”, the “LV diameter in systole (LVDs)” value is “no significant changes”, the LVDd result was “no significant changes” and the “fraction shortening (FS)” value is “no significant changes”. Moreover, in experiment [1] (setting [8]), the “increased LA sizes” value was “tendency to decrease” and the increased heart weights entry is listed as “tendency to decrease”. Besides, in experiment [1] (summary statement), the HFpEF phenotype entry is “reversal of the HFpEF phenotype”. For the same compound, the “in vivo efficacy among OGT inhibitors” value at OGT is recorded as “significant in vivo efficacy”.

For the compound `O=C(O)C1CC(=O)N(CCC23CC4CC(CC(C4)C2)C3)C(=Nc2ccc(Cl)cc2)S1` (stereo not shown) [ST045849], in the experiment with ECs from ΔE1HK1 mice, the “tube formation: number of junctions” value was “significant enhancement” and the “tube formation: total length of branching” value is given as “significant enhancement”.

Take tunicamycin: in experiment [2], the “concentration at which reduced protein N-glycosylation was confirmed” value is 20 nM and the “concentration at which reduction of protein N-glycosylation reaches plateau” value amounted to 50 nM. For the same compound, the “mRNA levels of genes related to UPR” value in experiment [3] is given as “acted in the same manner as observed in N-glycosylation experiments”. For the same compound, the “tube formation (number of junctions, total length of branching)” value with HUVECs was “no significant effects”.
